Legend:
[1] = tested on: system I cytochrome c biogenesis; assay: Metalloprotoporphyrin IX addition, E. coli ΔccmΔhemA with pRGK333 (system I), pRGK332, pHPEX2 and 8 μM heme; assay type: cell-based
Procedure: (§1) Overnight cultures of an E. coli Δccm strain (or E. coli ΔccmΔhemA) harboring either pRGK333 (system I) or pRGK348 (system II-chuA), pRGK332 (cytochrome c4:6×His), and pHPEX2 (Varnado and Goodwin, 2004) were diluted into fresh LB broth (containing the appropriate antibiotics and 8 μM hemin for the E. coli ΔccmΔhemA strain) and incubated with aeration at 37° C. until the OD600 was approximately 0.5. The mid-log phase cultures were divided into 5 mL aliquots to which IPTG (1 mM) and a metalloprotoporphyrin IX (Zn (II), Sn (IV), Co (III), or Mn (III); 0 μM to 25 μM) were added. Arabinose (0.2%) was added after one hour and incubation continued for an additional three hours. Cells were harvested and soluble protein was extracted using B-PER (Feissner et al., 2006). Cytochrome c4:6×His was purified from 300 μg of total protein and 20 μL was subjected to SDS-PAGE and transferred to nitrocellulose. Prior to heme stain and c4 immunoblot, the nitrocellulose blots were screened for fluorescence on an LAS-1000plus Luminescent Image Analyzer CCD camera system (Fujifilm; Tokyo, Japan).
(§2) Heme stains were performed as described (Feissner et al., 2003) using SuperSignal Femto chemiluminescent substrate (Pierce). Heme stain quantitation used LOLITA II (Low Light Test Array; raytestUSA; Wilmington, N.C.) for standardization of light intensity detection on an LAS1000plus Luminescent Image Analyzer CCD camera system. For Western blotting, extracts were first separated by 12% or 15% SDS-PAGE and electroblotted onto Hybond-C nitrocellulose membranes (Amersham). Protein A peroxidase (Sigma-Aldrich) was used as the secondary label. Detection used the SuperSignal West Femto ECL detection system (Pierce). Chemiluminescence from heme stains and Western blots were detected using an LAS-1000plus Luminescent Image Analyzer CCD camera system (Fujifilm). Protein concentrations were determined using the BCA assay (Pierce) using BSA as a standard. The reduced (10 mM sodium dithionite) and oxidized (10 mM ammonia persulphate) absorption spectra were obtained as previously described (Goldman et al., 1996) using Ni^2+ affinity-purified holocytochrome c4:His. Protein concentrations were determined with the BCA assay kit (Pierce) using BSA as a standard.
The chemical properties of iron may not be uniquely critical for its attachment to apocytochrome c during cytochromes c biogenesis. To test whether any of the cytochromes c biogenesis systems can incorporate other metal porphyrins, four metalloporphyrins were chosen to screen for incorporation into the into the CXXCH motif of a c-type cytochrome: ZnPPIX, SnPPIX, MnPPIX, and CoPPIX. These four metalloporphyrins were tested to determine whether heme can be replaced by other metalloporphyrins in the c-type cytochrome (c4:6×His) reporter. Cultures of E. coli ΔccmΔhemA containing pRGK333 (system I), pRGK332 (c4:6×His), and pHPEX2 were grown overnight in 300 μM ALA and subcultured into fresh LB medium containing 8 μM heme and grown to an OD600 of 0.5. IPTG and metalloporphyrin (8 μM, 12.5 μM, or 25 μM) were then added and growth continued for one hour. Arabinose was added to 0.2% to induce the synthesis of the c4:6×His and growth continued for three more hours before cells were harvested. […] As expected, heme was detected on c4:6×His when either 8 μM or 25 μM heme alone was added (FIG. 15 lanes 1 and 2, respectively).

[2] = tested on: system I cytochrome c biogenesis; assay: Metalloprotoporphyrin IX addition, E. coli Δccm with pRGK333 (system I), pRGK332 and pHPEX2; assay type: cell-based; details: 8 μM ZnPPIX
Procedure: as §1, with “The mid-log phase cultures were divided into 5 mL aliquots to which IPTG (1 mM) and a metalloprotoporphyrin IX (Zn (II), Sn (IV), Co (III), or Mn (III); 0 μM to 25 μM) were added.” left out
as §2
ZnPPIX (and SnPPIX), when present with 8 μM heme, may compete with heme for ChuA-dependent transport into the cell. Using an E. coli Δccm strain (RK103) that has endogenous heme production, it was tested whether ZnPPIX (and SnPPIX) caused a reduction in holocytochrome c4 levels detectable by heme stain. When E. coli Δccm with pRGK333 (system I), pRGK332, and pHPEX2 were treated with ZnPPIX, a decrease in holocytochrome c4:6×His was detected as the concentration of ZnPPIX was increased (FIG. 16A left panel, lanes 1-5).
The three other metal protoporphyrins, SnPPIX, MnPPIX, and CoPPIX, were also tested in the E. coli Δccm background with system I or II. […]

[3] = tested on: E. coli Δccm; assay: Growth of E. coli Δccm with pRGK333, pRGK332 and pHPEX2 in the presence of ZnPPIX; assay type: cell-based; details: 12.5 μM or 25 μM; compared to the same strain without ZnPPIX
Procedure: FIG. 21. Growth of E. coli Dccm containing pRGK333, pRGK332, and HPEX2 in the presence of ZnPPIX. Overnight cultures of E. coli Dccm containing pRGK333 (system I), pRGK332 (cytochrome c4:6×His), and pHPEX2 were diluted into fresh LB broth containing the indicated ZnPPIX ([…]) concentrations for growth measurements.
To rule out that ZnPPIX is not affecting some basic cellular processes, growth studies were performed with E. coli Δccm harboring pRGK333 (system I), pRGK332 (c4:6×His), and pHPEX2.

[4] = tested on: system II cytochrome c biogenesis (H. pylori CcsBA); assay: NMPP inhibition of holocytochrome c4:His synthesis, RK103 with pRGK334 (system II) and pRGK332; assay type: cell-based, E. coli; details: all trials; heme stain
Procedure: (§3) Five milliliter cultures of E. coli Δccm harboring either the pRGK333 or pRGK334 plasmid and pRGK332, or pRGK345 and pRGK349, were inoculated with 300 μl of overnight culture grown for 3 h to mid-exponential phase (A600=0.6). At this point, IPTG and NMPP (Frontier Scientific) were added to each culture; IPTG was added (1 mM) to induce the synthesis of system I (pRGK333), system II (pRGK334), or ΔccmE (pRGK345) while NMPP (10 mM stock in 50% DMSO) was added to a final concentration of 0-100 μM. After addition of IPTG and NMPP, cultures were grown an additional hour before induction of cytochrome c4:His (and ccmE from pRGK349) with 0.2% arabinose. Cells were grown for an additional 3 h and then harvested by centrifugation. […]
(§4) Heme stains were performed as described (Feissner et al., 2003) using SuperSignal Femto chemiluminescent substrate (Pierce). Heme stain quantitation used LOLITA II (Low Light Test Array; raytestUSA; Wilmington, N.C.) for standardization of light intensity detection on an LAS1000plus Luminescent Image Analyzer CCD camera system. […] Chemiluminescence from heme stains and Western blots were detected using an LAS-1000plus Luminescent Image Analyzer CCD camera system (Fujifilm). Protein concentrations were determined using the BCA assay (Pierce) using BSA as a standard. […] Protein concentrations were determined with the BCA assay kit (Pierce) using BSA as a standard. […]

[5] = tested on: system I cytochrome c biogenesis with arabinose-inducible CcmE; assay: NMPP inhibition, RK103 with pRGK345 (system I, ccmE deletion) and pRGK349 (arabinose-inducible c4:His and CcmE); assay type: cell-based, E. coli; details: 100 μM NMPP; compared with pRGK333 and constitutively produced CcmE
Procedure: as §3, §4

[6] = tested on: system I cytochrome c biogenesis; assay: NMPP-ZnPPIX combined inhibition, E. coli Δccm with pRGK333 (system I), pRGK332 and pHPEX2; assay type: cell-based
Procedure: 100 mL cultures of E. coli Δccm containing pRGK333 (system I), pRGK332 (c4:6×His), and pHPEX2 (Varnado and Goodwin, 2004) were inoculated with 1% (v/v) from an overnight culture and grown with aeration at 37° C. to an OD600 of approximately 0.5. The mid-log phase cultures were divided into 5 mL aliquots to which IPTG (1 mM, to induce the synthesis of the system I proteins and the chuA gene) and NMPP (0 μM to 100 μM) were added. After one hour 0.2% arabinose was added (to induce the synthesis of the B. pertussis c4:6×His) and cultures were incubated an additional three hours. […]
as §4

| Compound | level of heme on c4:6×His ([1]; 25 μM ZnPPIX with 8 μM heme, heme stain) | effect on the level of detectable heme on c4:6×His (holocytochrome c4) ([1]; metalloporphyrin 8, 12.5 or 25 μM with 8 μM heme) | holocytochrome c4:6×His produced, % of wild type levels [2] | rate or yield of growth [3] | NMPP concentration at which holocytochrome c4:His production was completely abolished [4] | amount of holocytochrome c4:His [5] | holocytochrome c4:6×His levels ([6]; 60 μM NMPP alone) | holocytochrome c4:6×His levels ([6]; 100 μM NMPP alone) |
| --- | --- | --- | --- | --- | --- | --- | --- | --- |
| C=CC1=C(C)c2cc3[n-]c(cc4[n-]c(cc5nc(cc1n2)C(C)=C5C=C)c(C)c4CCC(=O)O)c(CCC(=O)O)c3C.[Zn+2] [ZnPPIX, zinc (II) protoporphyrin IX] | nearly undetectable | decreasing amounts of holocytochrome c4 | approximately 20% | no decrease in the rate or yield of growth | – | – | – | – |
| N-methylprotoporphyrin [NMPP] | – | – | – | – | less than 20 μM | dramatic reduction | approximately 54% | approximately 30% |
